Experimental data reported in ChEMBL document CHEMBL1123199, “Synthesis and structure-activity relationships of naftifine-related allylamine antimycotics” (1986).
Converted amounts (≈) assume the structure as drawn.

Key:
Aspergillus fumigatus = assay: Antifungal activity measured against Aspergillus fumigatus; format: functional
Candida parapsilosis = assay: Antifungal activity against Candida parapsilosis.; format: functional; settings: Lodderomyces parapsilosis
Epidermophyton floccosum = assay: Antifungal activity against Epidermophyton floccosum.; format: functional
Microsporum canis = assay: Antifungal activity against Microsporum canis; format: functional
Sporothrix schenckii = assay: Antifungal activity measured against Sporothrix schenck ii.; format: functional
Trichophyton benhamiae = assay: Antifungal activity measured against Trichophyton mentagrophytes; format: functional, Arthroderma benhamiae
Cavia porcellus [1] = assay: In vivo antifungal activity by topical treatment of guinea pig dermatophytosis caused by Trichophyton mentagrophytes at a dose of 0.1%; format: functional
Cavia porcellus [2] = assay: In vivo antifungal activity by topical treatment of guinea pig dermatophytosis caused by Trichophyton mentagrophytes at a dose of 0.5%; format: functional
Cavia porcellus [3] = assay: In vivo antifungal activity by topical treatment of guinea pig dermatophytosis caused by Trichophyton mentagrophytes at a dose of 2%; format: functional

Structure (SMILES) | MIC (Aspergillus fumigatus) [µg/mL] | MIC (Candida parapsilosis) [µg/mL] | MIC (Epidermophyton floccosum) [µg/mL] | MIC (Microsporum canis) [µg/mL] | MIC (Sporothrix schenckii) [µg/mL] | MIC (Trichophyton benhamiae) [µg/mL] | Activity (Cavia porcellus [1]) [%] | Activity (Cavia porcellus [2]) [%] | Activity (Cavia porcellus [3]) [%]
CN(C/C=C/c1ccccc1)Cc1coc2ccccc12 | > 100 | 25 (≈ 90.1 µM) | 12.5 (≈ 45.1 µM) | 1.6 (≈ 5.77 µM) | 100 (≈ 361 µM) | 1.6 (≈ 5.77 µM) |  |  | 
C(=C\c1ccccc1)/CSCc1cccc2ccccc12 | > 100 | > 100 | > 100 | > 100 | > 100 | 25 (≈ 86.1 µM) |  |  | 
CN(C/C=C/c1ccccc1)Cc1c2c(cc3c1CCC3)CCC2 | > 100 | > 100 | 3.1 (≈ 9.76 µM) | 1.6 (≈ 5.04 µM) | 6.25 (≈ 19.7 µM) | 1.6 (≈ 5.04 µM) |  |  | 
C=CCN(C)Cc1cccc2ccccc12 | > 100 |  | > 100 | > 100 | > 100 | > 100 |  |  | 
C/C(=C\c1ccccc1)CN(C)Cc1cccc2ccccc12 | > 100 | > 100 | 100 (≈ 332 µM) | 100 (≈ 332 µM) | 100 (≈ 332 µM) | 12.5 (≈ 41.5 µM) |  |  | 
CN(CCc1ccccc1)Cc1cccc2ccccc12 | > 100 | > 100 | 100 (≈ 363 µM) | 100 (≈ 363 µM) | > 100 | 12.5 (≈ 45.4 µM) |  |  | 
CN(C/C=C/c1ccccc1)Cc1c2ccccc2cc2ccccc12 | 100 (≈ 296 µM) | 100 (≈ 296 µM) | 0.4 (≈ 1.19 µM) | 0.8 (≈ 2.37 µM) | 50 (≈ 148 µM) | 0.8 (≈ 2.37 µM) | 0 | 0 | 38
C(=C\c1ccccc1)/CN(Cc1cccc2ccccc12)c1ccccc1 | > 100 | > 100 | > 100 | > 100 | 50 (≈ 143 µM) | > 100 |  |  | 
C(=C\c1ccccc1)/CN(Cc1cccc2ccccc12)C1CCCCC1 | > 100 | > 100 | > 100 | > 100 | > 100 | > 100 |  |  | 
C=CCN(C/C=C/c1ccccc1)Cc1cccc2ccccc12 | 100 (≈ 319 µM) | > 100 | 3.1 (≈ 9.89 µM) | < 1.6 | 6.25 (≈ 19.9 µM) | < 1.6 |  |  | 
O=S(=O)(C/C=C/c1ccccc1)Cc1cccc2ccccc12 | > 100 | > 100 | > 100 | > 100 | > 100 | > 100 |  |  | 
CN(C/C=C/c1ccccc1)CC1=CCCc2ccccc21 | > 100 | 25 (≈ 86.4 µM) | ≤ 1.6 | ≤ 1.6 | 12.5 (≈ 43.2 µM) | ≤ 1.6 |  |  | 
CN(C/C=C/C#N)Cc1cccc2ccccc12 | > 100 | > 100 | 100 (≈ 423 µM) | 100 (≈ 423 µM) | > 100 | 100 (≈ 423 µM) |  |  | 
COc1ccc(/C=C/CN(C)Cc2cccc3ccccc23)cc1 | > 100 | > 100 | 50 (≈ 158 µM) | 50 (≈ 158 µM) | > 100 | 6.2 (≈ 19.5 µM) |  |  | 
CN(Cc1cccc2ccccc12)CC1CC1c1ccccc1 (configuration not stated) | > 100 | > 100 | 25 (≈ 82.9 µM) | 12.5 (≈ 41.5 µM) | 100 (≈ 332 µM) | 12.5 (≈ 41.5 µM) |  |  | 
[O-][S+](C/C=C/c1ccccc1)Cc1cccc2ccccc12 (configuration not stated) | > 100 | > 100 | > 100 | > 100 | > 100 | > 100 |  |  | 
CN(C/C=C/C1CCCCC1)Cc1cccc2ccccc12 | > 100 | > 100 | 12.5 (≈ 42.6 µM) | 12.5 (≈ 42.6 µM) | > 100 | 1.6 (≈ 5.45 µM) |  |  | 
C[N+](C)(C/C=C/c1ccccc1)Cc1cccc2ccccc12.[I-] | > 100 | > 100 | > 100 | > 100 | > 100 | 25 |  |  | 
CN(CCC(O)c1ccccc1)Cc1cccc2ccccc12 (configuration not stated) | > 100 | > 100 | > 100 | > 100 | > 100 | > 100 |  |  | 
CN(CCC(=O)c1ccccc1)Cc1cccc2ccccc12 | > 100 | > 100 | 6.2 (≈ 20.4 µM) | 6.2 (≈ 20.4 µM) | 50 (≈ 165 µM) | 6.2 (≈ 20.4 µM) |  |  | 
COc1ccc2ccccc2c1CN(C)C/C=C/c1ccccc1 | > 100 | > 100 | 50 (≈ 158 µM) | 100 (≈ 315 µM) | > 100 | 50 (≈ 158 µM) |  |  | 
CN(C/C=C/c1ccccc1)Cc1cccc2sccc12 | 12.5 (≈ 42.6 µM) | 1.6 (≈ 5.45 µM) | 0.1 (≈ 0.341 µM) | 0.1 (≈ 0.341 µM) | 1.6 (≈ 5.45 µM) | 0.1 (≈ 0.341 µM) |  | 75 | 100
CN(CC(=O)c1ccccc1)Cc1cccc2ccccc12 | > 100 | > 100 | 12.5 (≈ 43.2 µM) | 6.2 (≈ 21.4 µM) | > 100 | 3.1 (≈ 10.7 µM) |  |  | 
CN(C/C=C/C1=CCCCC1)Cc1cccc2ccccc12 | 12.5 (≈ 42.9 µM) | 0.8 (≈ 2.75 µM) | 0.1 (≈ 0.343 µM) | 0.1 (≈ 0.343 µM) | 0.8 (≈ 2.75 µM) | 0.05 (≈ 0.172 µM) | 41 | 97 | 100

Structure (SMILES) | MIC (Aspergillus fumigatus) [µg/mL] | MIC (Candida parapsilosis) [µg/mL] | MIC (Epidermophyton floccosum) [µg/mL] | MIC (Microsporum canis) [µg/mL] | MIC (Sporothrix schenckii) [µg/mL] | MIC (Trichophyton benhamiae) [µg/mL] | Activity (Cavia porcellus [1]) [%] | Activity (Cavia porcellus [2]) [%] | Activity (Cavia porcellus [3]) [%]
CN(C/C=C/c1ccccc1)Cc1cn(C)c2ccccc12 | > 100 | 25 (≈ 86.1 µM) | ≤ 1.6 | ≤ 1.6 | ≤ 1.6 | ≤ 1.6 | 0 | 0 | 88
C/C(=C\CN(C)Cc1cccc2ccccc12)c1ccccc1 | > 100 | > 100 | 100 (≈ 332 µM) | 100 (≈ 332 µM) | 100 (≈ 332 µM) | 50 (≈ 166 µM) |  |  | 
C/C=C/CN(C)Cc1cccc2ccccc12 | > 100 | > 100 | > 100 | > 100 | > 100 | > 100 |  |  | 
C(=C\c1ccccc1)/CN(Cc1ccccc1)Cc1cccc2ccccc12 | > 100 | > 100 | > 100 | > 100 | > 100 | > 100 |  |  | 
CN(C/C=C/c1ccccc1)Cc1cc2ccccc2c2ccccc12 | 100 (≈ 296 µM) | 100 (≈ 296 µM) | 100 (≈ 296 µM) | 100 (≈ 296 µM) | 100 (≈ 296 µM) | 100 (≈ 296 µM) |  |  | 
CC(=O)N(C/C=C/c1ccccc1)Cc1cccc2ccccc12 | > 100 | > 100 | > 100 | > 100 | > 100 | > 100 |  |  | 
CN(C/C=C/c1cccc2ccccc12)Cc1cccc2ccccc12 | > 100 | > 100 | 100 (≈ 296 µM) | 100 (≈ 296 µM) | 100 (≈ 296 µM) | 1.6 (≈ 4.74 µM) |  |  | 
CCN(C/C=C/c1ccccc1)Cc1cccc2ccccc12 | 100 (≈ 332 µM) | 12.5 (≈ 41.5 µM) | < 1.6 | < 1.6 | 12.5 (≈ 41.5 µM) | < 1.6 | 19 | 25 | 81
Cc1ccc(/C=C/CN(C)Cc2cccc3ccccc23)cc1 | > 100 | 50 (≈ 166 µM) | < 1.6 | < 1.6 | 12.5 (≈ 41.5 µM) | < 1.6 | 7 | 22 | 50
C(=C\c1ccccc1)/CN(C/C=C/c1ccccc1)Cc1cccc2ccccc12 | > 100 | > 100 | > 100 | > 100 | > 100 | > 100 |  |  | 
C(=C\c1ccccc1)/C=N/Cc1cccc2ccccc12 | > 100 | > 100 | 100 (≈ 369 µM) | > 100 | 100 (≈ 369 µM) | 100 (≈ 369 µM) |  |  | 
CN(C/C=C/c1ccccc1)CC1=CCOc2ccccc21 | 50 (≈ 172 µM) | 6.2 (≈ 21.3 µM) | 0.4 (≈ 1.37 µM) | 0.4 (≈ 1.37 µM) | 6.2 (≈ 21.3 µM) | 0.2 (≈ 0.686 µM) |  |  | 82
CC(/C=C/c1ccccc1)N(C)Cc1cccc2ccccc12 (configuration not stated) | > 100 | > 100 | 12.5 (≈ 41.5 µM) | 25 (≈ 82.9 µM) | 25 (≈ 82.9 µM) | < 1.6 |  |  | 
CC(C)N(C/C=C/c1ccccc1)Cc1cccc2ccccc12 | > 100 | 100 (≈ 317 µM) | < 1.6 | 3.1 (≈ 9.83 µM) | 50 (≈ 158 µM) | < 1.6 |  |  | 
CN(C/C=C/C1CC=CCC1)Cc1cccc2ccccc12 (configuration not stated) | > 100 | > 100 | 25 (≈ 85.8 µM) | 25 (≈ 85.8 µM) | 100 (≈ 343 µM) | 25 (≈ 85.8 µM) |  |  | 
CN(C/C=C/c1ccncc1)Cc1cccc2ccccc12 | > 100 | > 100 | 25 (≈ 86.7 µM) | 25 (≈ 86.7 µM) | 100 (≈ 347 µM) | < 1.6 |  |  | 
CN(C/C=C/c1ccco1)Cc1cccc2ccccc12 | > 100 | > 100 | 6.2 (≈ 22.4 µM) | 6.2 (≈ 22.4 µM) | 100 (≈ 361 µM) | < 1.6 |  |  | 
CN(Cc1cccc2ccccc12)C(=O)/C=C/c1ccccc1 | > 100 | > 100 | > 100 | > 100 | > 100 | > 100 |  |  | 
CN(C/C=C/c1cccn1C)Cc1cccc2ccccc12 | > 100 | > 100 | 25 (≈ 86.1 µM) | 50 (≈ 172 µM) | 50 (≈ 172 µM) | 25 (≈ 86.1 µM) |  |  | 
CN(C/C=C/c1ccccc1)C(c1ccccc1)c1ccccc1 | > 100 | > 100 | > 100 | > 100 | > 100 | > 100 |  |  | 
CN(C/C=C/CO)Cc1cccc2ccccc12 | > 100 | > 100 | > 100 | > 100 | > 100 | > 100 |  |  | 
CN(C/C=C/c1ccccc1)Cc1csc2ccccc12 | 25 (≈ 85.2 µM) | 3.1 (≈ 10.6 µM) | 0.2 (≈ 0.682 µM) | 0.2 (≈ 0.682 µM) | 1.6 (≈ 5.45 µM) | 0.1 (≈ 0.341 µM) | 0 | 54 | 97
C(=C\c1ccccc1)/CNCc1cccc2ccccc12 [N-DEALKYL NAFTIFINE] | > 100 | > 100 | 100 (≈ 366 µM) | 100 (≈ 366 µM) | 100 (≈ 366 µM) | 12.5 (≈ 45.7 µM) |  |  | 
